Series [1] has as its system HBV. Description: Anti HBV activity in vitro, viral DNA from HepG2.2.15 cells quantified by qPCR. The series is classed as cell-based. The note with it: Hepatitis B virus, qPCR of viral DNA in supernatant, read-out: EC50 against HBV replication. On the procedure: Test 1: Test Method of EC50 of Anti HBV
HBV Cell Line and Culture Conditions
HepG2.2.15 (SELLS, PNAS, 1987 and SELLS, JV, 1988) chromosomes have an integrated complete HBV genome, and stably express viral RNA and viral protein. HepG2.2.15 cells can secrete mature HBV particles, HBsAg and HBeAg to medium. HepG2.2.15 cells were cultured in DMEM containing 10% fetal bovine serum, 100 U/mL penicillin, 100 U/mL streptomycin, 1% non essential amino acid, 1 mM sodium pyruvate and 300 µg/mL G418.
Viral particles DNA secreted from HepG2.2.15 cells can be quantified by qPCR, and the effect of the compound on viral replication can be detected.
Test of Anti HBV Activity In Vitro
8000 HepG 2.2.15 cells per well were seeded into a 96-well plate, the plate was cultured at 37° C. and 5% CO2 for 3 days till the cells grew to full wells. Old liquid medium can be removed and replaced with new medium (200 μL) on day 0.
Formulating the compound and treating the cells in the experiment of anti virus: the compound was dissolved in DMSO to a concentration of 30 mM, and then the compound solution was diluted with DMSO to a concentration of […], and then eight dilutions at 4 fold were performed, the highest concentration is 800 μM. The serial diluted compound was added to the above plate at 1 μL per well, the highest final concentration in the experiment is 4 μM (200 fold dilution). TDF (tenofovir dipiroxil fumarate, Selleck, Cat S1400) has a highest concentration of 4 μM as a positive control. 1 μL of DMSO was added in to the positive control well at a final concentration of 0.5%, TDF was added in to the positive control well at a final concentration of 1 μM.
Detection of Viral Genomic DNA by qPCR
Primer: HBV-For-202, […]; HBV-Rev-315, […]. Copies of virus can be calculated using a standard curve plotted by using plasmid containing HBV genome and using SYBR Premix Ex Taq II Takara DRR081S kit and 1 μL cell culture supernatant as a template. EC50 values of the compound on viral replication were calculated by a four parametric nonlinear regression model using Graphpad Prism 5 software to manage concentration—viral copy number.
In general terms: In qPCR the cycle at which signal appears reflects the starting amount.

Series [2] is described as follows: Cytotoxicity in HepG2.2.15 cells (CellTiter Glo). The format is cell-based. The conditions noted are these: human, highest concentration 150 μM. On the procedure: Test 2: Cytotoxicity and Selectivity Index
Methods of Testing Cytotoxicity and Selectivity Index
The serial diluted compound was added to a 384 wells plate at 50 μL HepG2.2.15 cell per well (3000 cells per well), the highest final concentration in the experiment is 150 μM (200 fold dilution). The plate was cultured at 37° C. in an incubator with C02 for 4 days, and cytotoxicity of the compound was detected using CellTiter Glo agent.
The cytotoxicity of the compound was calculated using the following formulate, cytotoxicity (%)=100−(detection value/mean of DMSO control wells values×100). CC50 values were calculated by a four parametric nonlinear regression model using Graphpad Prism 5 software to manage concentration−cytotoxicity (%). […]

A value given as a limit tells only on which side of the number the result lay.

As for `COCCN1C[C@@H](N2C[C@@H]3CN(CC4=C(C(=O)OC)[C@H](c5ccc(F)cc5Cl)N=C(c5nccs5)N4)CCN3C2=O)C[C@@H]1C(=O)O` [Example 7, (2R,4S)-4-((S)-7-(((R)-6-(2-chloro-4-fluorophenyl)-5-(methoxycarbonyl)-2-(thiazol-2-yl)-3,6-dihydropyrimidin-4-yl)methyl)-3-oxohexahydroimidazo[1,5-a]pyrazin-2(3H)-yl)-1-(2-methoxyethyl)pyrrolidine-2-carboxylic Acid], the EC50 in series [1] was found to be 56 nM.
The same measure, in the same setting: as for `COC(=O)C1=C(CN2CCN3C(=O)N([C@H](Cc4ccccc4)C(=O)O)CC3C2)NC(c2nccs2)=N[C@H]1c1ccc(F)cc1Cl` (stereo partly drawn) [Example 11, (2R)-2-(7-(((R)-6-(2-chloro-4-fluorophenyl)-5-(methoxycarbonyl)-2-(thiazol-2-yl)-3,6-dihydropyrimidin-4-yl)methyl)-3-oxohexahydroimidazo[1,5-a]pyrazin-2(3H)-yl)-3-phenylpropionic Acid], the figure is 32 nM; as for `COC(=O)C1=C(CN2CCN3C(=O)N(C(CC(=O)O)c4ccccc4)C[C@@H]3C2)NC(c2nccs2)=N[C@H]1c1ccc(F)cc1Cl` (stereo partly drawn) [Example 12, 3-((S)-7-(((R)-6-(2-chloro-4-fluorophenyl)-5-(methoxycarbonyl)-2-(thiazol-2-yl)-3,6-dihydropyrimidin-4-yl)methyl)-3-oxohexahydroimidazo[1,5-a]pyrazin-2(3H)-yl)-3-phenylpropionic Acid], 37 nM.
With `COC(=O)C1=C(CN2CCN3C(=O)N(c4ccc(C(C)(C)C(=O)O)cc4)C[C@@H]3C2)NC(c2nccs2)=N[C@H]1c1ccc(F)cc1Cl` [Example 15, 2-(4-((S)-7-(((R)-6-(2-chloro-4-fluorophenyl)-5-(methoxycarbonyl)-2-(thiazol-2-yl)-3,6-dihydropyrimidin-4-yl)methyl)-3-oxohexahydroimidazo[1,5-a]pyrazin-2(3H)-yl)phenyl)-2-methylpropionic Acid], the EC50 in series [1] stood at 5 nM. In series [2], this molecule came in with a cytotoxic concentration (CC50) at 4 days of more than 150000 nM.
In the same order, the values of `COC(=O)C1=C(CN2CCN3C(=O)N(c4ccc(C(CC(=O)O)NC(=O)OC(C)(C)C)cc4)C[C@@H]3C2)NC(c2nccs2)=N[C@H]1c1ccc(F)cc1Cl` (stereo partly drawn) [Example 16, 3-((tert-butoxycarbonyl)amino)-3-(4-((S)-7-(((R)-6-(2-chloro-4-fluorophenyl)-5-(methoxycarbonyl)-2-(thiazol-2-yl)-3,6-dihydropyrimidin-4-yl)methyl)-3-oxohexahydroimidazo[1,5-a]pyrazin-2 (3H)-yl)phenyl)propanoic Acid] are 14 nM and more than 150000 nM.
For `COC(=O)C1=C(CN2CCN3C(=O)N(c4ccc(CC(C)C(=O)O)cc4)C[C@@H]3C2)NC(c2nccs2)=N[C@H]1c1ccc(F)cc1Cl` (stereo partly drawn) [Example 18, 3-(4-((S)-7-(((R)-6-(2-chloro-4-fluorophenyl)-5-(methoxycarbonyl)-2-(thiazol-2-yl)-3,6-dihydropyrimidin-4-yl)methyl)-3-oxohexahydroimidazo[1,5-a]pyrazin-2(3H)-yl)phenyl)-2-methylpropionic Acid] the same measures were 4 nM and more than 150000 nM.
Consider `COC(=O)C1=C(CN2CCN3C(=O)N(c4nc(CCC(=O)O)cs4)C[C@@H]3C2)NC(c2nccs2)=N[C@H]1c1ccc(F)cc1Cl` [Example 20, 3-(2-((S)-7-(((R)-6-(2-chloro-4-fluorophenyl)-5-(methoxycarbonyl)-2-(thiazol-2-yl)-3,6-dihydropyrimidin-4-yl)methyl)-3-oxohexahydroimidazo[1,5-a]pyrazin-2(3H)-yl)thiazol-4-yl)propionic Acid], for which, in series [1], the EC50 was 5 nM. The same molecule came in with a CC50 at 4 days in series [2] of more than 150000 nM.
In the same order, the values of `COC(=O)C1=C(CN2CCN3C(=O)N(Cc4ccc(CC(=O)O)cc4)C[C@@H]3C2)NC(c2nccs2)=N[C@H]1c1ccc(F)cc1Cl` [Example 21, 2-(4-(((S)-7-(((R)-6-(2-chloro-4-fluorophenyl)-5-(methoxycarbonyl)-2-(thiazol-2-yl)-3,6-dihydropyrimidin-4-yl)methyl)-3-oxohexahydroimidazo[1,5-a]pyrazin-2(3H)-yl)methyl)phenyl)acetic Acid] are 22 nM and 110000 nM.
For `COC(=O)C1=C(CN2CCN3C(=O)N(c4ccc(CCC(=O)O)cn4)C[C@@H]3C2)NC(c2nccs2)=N[C@H]1c1ccc(F)cc1Cl` [Example 35, 3-(6-((S)-7-(((R)-6-(2-chloro-4-fluorophenyl)-5-(methoxycarbonyl)-2-(thiazol-2-yl)-3,6-dihydropyrimidin-4-yl)methyl)-3-oxohexahydroimidazo[1,5-a]pyrazin-2(3H)-yl)pyridin-3-yl)propionic Acid], the EC50 in series [1] is 8 nM.
In series [2], `COC(=O)C1=C(CN2CCN3C(=O)N(c4cncc(CCC(=O)O)c4)C[C@@H]3C2)NC(c2nccs2)=N[C@H]1c1ccc(F)cc1Cl` [Example 36, 3-(5-((S)-7-(((R)-6-(2-chloro-4-fluorophenyl)-5-(methoxycarbonyl)-2-(thiazol-2-yl)-3,6-dihydropyrimidin-4-yl)methyl)-3-oxohexahydroimidazo[1,5-a]pyrazin-2(3H)-yl)pyridin-3-yl)propionic Acid] registered a CC50 at 4 days of more than 150000 nM.
Take `COC[C@@H]1[C@H]2CN(c3ccc(CCC(=O)OC)cc3)C(=O)N2CCN1CC1=C(C(=O)OC)[C@H](c2ccc(F)cc2Cl)N=C(c2nccs2)N1` [Example 50B]: the EC50 in series [1] was determined as 8 nM.
Regarding `COC[C@H]1[C@@H]2CN(c3ccc(CCC(=O)O)cc3)C(=O)N2CCN1CC1=C(C(=O)OC)[C@H](c2ccc(F)cc2Cl)N=C(c2nccs2)N1` [Example 51A], in series [2], the CC50 at 4 days was more than 150000 nM.
For the molecule `CCOC(=O)C1=C(CN2CCN3C(=O)N(c4ccc(/C=C(\C)C(=O)O)cc4)C[C@@H]3C2)NC(c2nccs2)=N[C@H]1c1ccc(F)cc1Br` [Example 55, (E)-3-(4-((S)-7-(((R)-6-(2-bromo-4-fluorophenyl)-5-(ethoxycarbonyl)-2-(thiazol-2-yl)-3,6-dihydropyrimidin-4-yl)methyl)-3-oxohexahydroimidazo[1,5-a]pyrazin-2(3H)-yl)phenyl)-2-methylacrylic Acid], the EC50 in series [1] stood at 9 nM.
Same read-out and setting: to `CCOC(=O)C1=C(CN2CCN3C(=O)N(c4ccc(/C(C)=C/C(=O)O)cc4)C[C@@H]3C2)NC(c2nccs2)=N[C@H]1c1ccc(F)cc1Br` [Example 56, (E)-3-(4-((S)-7-(((R)-6-(2-bromo-4-fluorophenyl)-5-(ethoxycarbonyl)-2-(thiazol-2-yl)-3,6-dihydropyrimidin-4-yl)methyl)-3-oxohexahydroimidazo[1,5-a]pyrazin-2(3H)-yl)phenyl)-2-butenoic Acid] belongs 12 nM; to `CCOC(=O)C1=C(CN2CCN3C(=O)N(c4ccc(CCC(=O)O)cc4)C[C@@H]3[C@H]2COC)NC(c2nccs2)=N[C@H]1c1ccc(F)cc1Br` [Example 57, 3-(4-((8S,8aR)-7-(((R)-6-(2-bromo-4-fluorophenyl)-5-(ethoxycarbonyl)-2-(thiazol-2-yl)-3,6-dihydropyrimidin-4-yl)methyl)-8-(methoxymethyl)-3-oxohexahydroimidazo[1,5-a]pyrazin-2(3H)-yl)phenyl)propionic Acid], 12 nM.
On to `COC(=O)CCc1ccc(N2C[C@@H]3[C@@H](CO)N(CC4=C(C(=O)OC)[C@H](c5ccc(F)cc5Cl)N=C(c5nccs5)N4)CCN3C2=O)cc1` [Example 58B], for which the EC50 in series [1] came out at 14 nM.
In turn, `COC(=O)C1=C(CN2CCN3C(=O)N(c4ccc(CCC(=O)O)cc4)C[C@H]3[C@@H]2CO)NC(c2nccs2)=N[C@H]1c1ccc(F)cc1Cl` [Example 59A] had a CC50 at 4 days in series [2] of more than 150000 nM.
As for `COC[C@@H]1[C@H]2CN(c3ccc(C(C)(C)C(=O)OC)cc3)C(=O)N2CCN1CC1=C(C(=O)OC)[C@H](c2ccc(F)cc2Cl)N=C(c2nccs2)N1` [Example 60B], the EC50 in series [1] was 4 nM.
On the same count and under the same terms, as for `COC[C@@H]1[C@H]2CN(c3ccc(C(C)(C)C(=O)O)cc3)C(=O)N2CCN1CC1=C(C(=O)OC)[C@H](c2ccc(F)cc2Cl)N=C(c2nccs2)N1` [Example 61B], the figure is 5 nM.

By EC50 is commonly meant the concentration that produces a half-maximal response. The term CC50 denotes the concentration that lowers cell viability or growth by half.

Values taken from patent US11261190B2, “Dihydropyrimidine compounds and uses thereof in medicine” (SUNSHINE LAKE PHARMA CO., LTD., priority 2017, dated 2022).
